Test results taken from US20250387363A1, “LIQUID EPINEPHRINE PRODRUG FORMULATIONS AND LIQUID EPINEPHRINE FORMULATIONS” (Insignis Therapeutics, Inc., priority 2024, published 2025).

Assays:
[1] = Cross study epinephrine PK comparison, L-dipivefrin HCl formulations vs EpiPen 0.3 mg; type: in vivo, human; conditions: oral formulations administered sublingually; Table 10.1
From the text: FIG. 5. […] Study period I and study period II refer to the two test periods described in example 7 which are separated by a 1 week washout period.

[2] = test system: healthy adult human volunteers; assay: Cross study pharmacodynamic response comparison (SBP, DBP, PR change from baseline) vs EpiPen 0.3 mg; type: in vivo; conditions: sublingual liquid dosage form, 10 mg dipivefrin HCl, two hours postdose
[3] = rabbits; cited from earlier work

Epinephrine exposures compared to Epipen 0.3 mg [1] | Structure (SMILES) | Median SBP (Systolic Blood Pressure) change from baseline response compared to EpiPen 0.3 mg injection ([2]; FIG. 6) | Median DBP (Diastolic Blood Pressure) change from baseline response compared to EpiPen 0.3 mg injection ([2]; FIG. 7) | Median PR (Pulse Rate) change from baseline response compared to EpiPen 0.3 mg injection ([2]; FIG. 8) | PD response (SBP, DBP and PR change from baseline) compared to EpiPen 0.3 mg injection ([2]; FIGS. 6-8) | Sublingual dose giving systemic absorption equivalent to IM epinephrine [3] [mg]
comparable | CNC[C@H](O)c1ccc(OC(=O)C(C)(C)C)c(OC(=O)C(C)(C)C)c1.Cl [L-dipivefrin HCl, L-dipivefrin hydrochloride] | greater | greater | comparable or greater | comparable or greater | 
 | CNC[C@H](O)c1ccc(O)c(O)c1 [epinephrine, 4-[(1R)-1-hydroxy-2-(methylamino)ethyl]benzene-1,2-diol] |  |  |  |  | 40
